According to patent US20240287138A1, “CYCLIC PEPTIDES FOR INHIBITING TNF RECEPTOR 1 ACTIVITY” (Merck Sharp & Dohme LLC, priority 2023, published 2024):
Numbered stars: 1 amine (or outer) side, 2 acyl side, 3 side chain; on linkers, the order of the positions; unused ones are H or OH. Bridge positions count the residues as written; N and C are the ends. Square brackets hold non-standard residues; d marks the D form. Peptide text beside a SMILES is read from it. Trp(βS-Me,7-OMe) = COc1cccc2c([C@H](C)[C@H](N)C(=O)O)c[nH]c12; X49 = C[N+](C)(C)CC(=O)N[C@H]1C[C@H](C(=O)[*:2])N([*:1])C1; Trp(7-CN) = N#Cc1cccc2c(C[C@H](N)C(=O)O)c[nH]c12; Trp(7-Cl) = N[C@@H](Cc1c[nH]c2c(Cl)cccc12)C(=O)O; X27 = O=C(O)c1ccc(C[C@H](N[*:1])C(=O)[*:2])cc1F; Phe(4-CONH2) = NC(=O)c1ccc(C[C@H](N)C(=O)O)cc1; Phe(4-COOH) = N[C@@H](Cc1ccc(C(=O)O)cc1)C(=O)O; 4Pal(3S-Me) = C[C@@H](c1ccncc1)[C@H](N)C(=O)O; Trp(7-aza) = N[C@@H](Cc1c[nH]c2ncccc12)C(=O)O; Pip(5R-OH) = O=C(O)[C@@H]1CC[C@@H](O)CN1; Nle(6-COOH) = N[C@@H](CCCCC(=O)O)C(=O)O; X1 = O=C([C@@H]1CC[C@H](N[*:1])C1)[*:2]; X53 = O=C([C@H](Cc1ccncc1F)N[*:1])[*:2]; Val(3-OH) = CC(C)(O)[C@H](N)C(=O)O; Pip(4-aza) = O=C(O)[C@@H]1CNCCN1; 4Pal = N[C@@H](Cc1ccncc1)C(=O)O; NMeE = CN[C@@H](CCC(=O)O)C(=O)O; dHyp = O=C(O)[C@H]1C[C@H](O)CN1; X33 = N#CCCN(CC(=O)[*:2])[*:1]; Ahp(2) = CCCCC[C@H](N)C(=O)O; Pip = O=C(O)[C@@H]1CCCCN1; αMeS = C[C@](N)(CO)C(=O)O; Nle = CCCC[C@H](N)C(=O)O; Sar = CNCC(=O)O

Key:
[1] = molecular target: T1, TNFα-induced NF-κB signal transduction pathway (TNFR1 signaling) in THP-1 cells (Homo sapiens, UniProt P19438); experiment: THP-1 Lucia NF-κB reporter cell assay, inhibition of TNFα-induced NF-κB signaling; type: cell-based; conditions: THP-1 NF-κB Lucia reporter cells, 10 ng/mL TNFα, 16-18 h, secreted luciferase; read-out: THP-1 IC50
T1 sequence (P19438 30-455): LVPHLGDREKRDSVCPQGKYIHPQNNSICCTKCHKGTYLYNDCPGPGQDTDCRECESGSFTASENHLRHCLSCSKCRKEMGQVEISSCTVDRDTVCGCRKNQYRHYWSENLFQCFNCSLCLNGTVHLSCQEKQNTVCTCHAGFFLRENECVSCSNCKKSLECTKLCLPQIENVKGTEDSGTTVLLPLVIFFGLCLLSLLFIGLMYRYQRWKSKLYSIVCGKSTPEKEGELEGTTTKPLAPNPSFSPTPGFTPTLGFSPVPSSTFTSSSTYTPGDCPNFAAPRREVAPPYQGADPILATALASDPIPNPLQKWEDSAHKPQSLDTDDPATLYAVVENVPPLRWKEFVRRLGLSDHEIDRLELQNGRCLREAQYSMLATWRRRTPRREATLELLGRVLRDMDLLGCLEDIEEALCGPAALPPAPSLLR
Method in brief: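 Inhibition of TNFR1-driven NF-κB activation was measured as luminescence of secreted reporter luciferase following overnight (16-18 h) stimulation with 10 ng/mL TNFα.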

[2] = molecular target: T2, human soluble TNFR1 (sTNFR1) (Homo sapiens, UniProt P19438); experiment: Human sTNFR1-peptide displacement assay (LanthaScreen Eu TR-FRET binding assay)
T2 construct: made in house; host or cells: Sf21 (baculovirus)
T2 sequence (P19438 with tags, fused parts or gaps): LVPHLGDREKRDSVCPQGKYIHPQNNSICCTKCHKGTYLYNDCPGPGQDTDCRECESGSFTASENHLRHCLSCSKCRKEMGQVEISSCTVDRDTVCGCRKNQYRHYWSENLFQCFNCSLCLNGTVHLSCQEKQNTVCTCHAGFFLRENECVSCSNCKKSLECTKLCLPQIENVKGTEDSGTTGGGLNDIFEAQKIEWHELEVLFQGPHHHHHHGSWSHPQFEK
Method in brief: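 Readout is the 665/615 nm TR-FRET ratio (Eu anti-His donor, streptavidin-Alexa647 acceptor), normalized to DMSO and saturating displacer, fit by Morrison-based five-parameter logistic for Kd^app. His-tagged sTNFR1 (1-211) prebound to 100 nM biotinylated peptide SEQ ID NO.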

SMILES | IC50 [1] [pM] | Kd [2] [pM] | IC50 [2] [pM]
CCCC[C@@H]1NC(=O)[C@@H]2CC[C@@H](C2)NC(=O)[C@H]([C@@H](C)c2c[nH]c3c(OC)cccc23)NC(=O)CN(C)C(=O)[C@H](Cc2ccc(O)cc2)NC(=O)[C@H](Cc2ccc(C(=O)O)cc2)NC(=O)[C@](C)(CO)NC(=O)[C@H](Cc2c[nH]c3c(Cl)cccc23)NC(=O)[C@H](Cc2ccncc2F)NC(=O)[C@H](CC(N)=O)NC(=O)[C@H](CCC(=O)O)N(C)C(=O)[C@H](Cc2c[nH]c3ccccc23)NC(=O)[C@@H]2CNCCN2C(=O)[C@H](Cc2ccncc2)NC1=O [SEQ ID NO. 198] (cyclo([4Pal][Pip(4-aza)]W[NMeE]N[X53][Trp(7-Cl)][αMeS][Phe(4-COOH)]Y[Sar][Trp(βS-Me,7-OMe)][X1][Nle])) | 800 | 310 | –
CCCC[C@@H]1NC(=O)CSC[C@@H](C(N)=O)NC(=O)[C@H]([C@@H](C)c2c[nH]c3c(OC)cccc23)NC(=O)CN(C)C(=O)[C@H](Cc2ccc(O)cc2)NC(=O)[C@H](Cc2ccc(C(=O)O)cc2)NC(=O)[C@](C)(CO)NC(=O)[C@H](Cc2c[nH]c3c(Cl)cccc23)NC(=O)[C@H](Cc2ccncc2)NC(=O)[C@H](CC(N)=O)NC(=O)[C@H](CCC(=O)O)N(C)C(=O)[C@H](Cc2c[nH]c3ncccc23)NC(=O)[C@H](C(C)(C)O)NC(=O)[C@H](Cc2ccc(C(N)=O)cc2)NC1=O [SEQ ID NO. 164] ({CH2CO}-[Nle][Phe(4-CONH2)][Val(3-OH)][Trp(7-aza)][NMeE]N[4Pal][Trp(7-Cl)][αMeS][Phe(4-COOH)]Y[Sar][Trp(βS-Me,7-OMe)]C-NH2; thioether N-14) | 3600 | 500 | 600
CCCCC[C@@H]1NC(=O)[C@@H]2CC[C@@H](C2)NC(=O)[C@H]([C@@H](C)c2c[nH]c3c(OC)cccc23)NC(=O)CN(C)C(=O)[C@H](Cc2ccc(C(N)=O)cc2)NC(=O)[C@H](Cc2ccc(C(N)=O)cc2)NC(=O)[C@](C)(CO)NC(=O)[C@H](Cc2c[nH]c3c(C#N)cccc23)NC(=O)[C@H](Cc2ccc(C(=O)O)cc2)NC(=O)[C@H](CC(N)=O)NC(=O)[C@H]2C[C@H](O)CN2C(=O)[C@H](Cc2c[nH]c3ccccc23)NC(=O)[C@H](CCCCC(=O)O)NC(=O)[C@H]([C@@H](C)c2ccncc2)NC1=O [SEQ ID NO. 176] (cyclo([Ahp(2)][4Pal(3S-Me)][Nle(6-COOH)]W[dHyp]N[Phe(4-COOH)][Trp(7-CN)][αMeS][Phe(4-CONH2)][Phe(4-CONH2)][Sar][Trp(βS-Me,7-OMe)][X1])) | 1000 | 220 | –
CCCC[C@@H]1NC(=O)CSC[C@@H](C(N)=O)NC(=O)[C@H]([C@@H](C)c2c[nH]c3c(OC)cccc23)NC(=O)CN(C)C(=O)[C@H](Cc2ccc(O)cc2)NC(=O)[C@H](Cc2ccc(C(=O)O)cc2)NC(=O)[C@](C)(CO)NC(=O)[C@H](Cc2c[nH]c3c(Cl)cccc23)NC(=O)[C@H](Cc2ccncc2)NC(=O)[C@H](CC(N)=O)NC(=O)CN(CCC#N)C(=O)[C@H](Cc2c[nH]c3ncccc23)NC(=O)[C@@H]2CCCCN2C(=O)[C@H](Cc2ccncc2)NC1=O [SEQ ID NO. 228] ({CH2CO}-[Nle][4Pal][Pip][Trp(7-aza)][X33]N[4Pal][Trp(7-Cl)][αMeS][Phe(4-COOH)]Y[Sar][Trp(βS-Me,7-OMe)]C-NH2; thioether N-14) | 4000 | 640 | 700
CCCC[C@@H]1NC(=O)[C@@H]2CC[C@@H](C2)NC(=O)[C@H]([C@@H](C)c2c[nH]c3c(OC)cccc23)NC(=O)CN(C)C(=O)[C@H](Cc2ccc(C(=O)O)c(F)c2)NC(=O)[C@H](Cc2ccc(C(N)=O)cc2)NC(=O)[C@](C)(CO)NC(=O)[C@H](Cc2c[nH]c3c(C#N)cccc23)NC(=O)[C@H](Cc2ccc(C(=O)O)cc2)NC(=O)[C@H](CC(N)=O)NC(=O)[C@H]2C[C@H](NC(=O)C[N+](C)(C)C)CN2C(=O)[C@H](Cc2c[nH]c3ncccc23)NC(=O)[C@@H]2CC[C@@H](O)CN2C(=O)[C@H](Cc2ccncc2)NC1=O [SEQ ID NO. 113] (cyclo([4Pal][Pip(5R-OH)][Trp(7-aza)][X49]N[Phe(4-COOH)][Trp(7-CN)][αMeS][Phe(4-CONH2)][X27][Sar][Trp(βS-Me,7-OMe)][X1][Nle])) | 500 | 90 | –
